Results reported in patent publication USRE37664E1, “Use of derivatives of N-phenl-3,4,5,6-tetrahydrophthalimide for the desiccation and abscission of plant organs” (BASF Aktiengessellschaft, priority 1989, dated 2002).
Structures can show the parent of a compound that is named as a salt. One block for each molecule: values may come before it.

Columns and labels:
[1] = tested on: cotton plants (Delta Pine variety); assay: Defoliation of young cotton plants under greenhouse conditions, Example C; assay type: in vivo; details: foliar treatment of young cotton plants, 3 days after application, day/night 28/20° C., percentage of the control
Experimental: (§1) Young cotton plants (Delta Pine variety, stage of development: 5-6 developed foliage leaves) were cultivated under green house conditions (day/night temperature 28/20° C., relative humidity 514 70%) and the foliage was treated, until dripping wet, with aqueous formulations of the stated active ingredients. The converted amount of water was 1,000 l/ha. 3 days after application of the active ingredient, the number of dropped leaves and the degree of defoliation as a percentage of the control were stared. No dropping of leaves occurred in the untreated control plants.

[2] = tested on: cotton plants (Delta Pine variety); assay: Defoliation of young cotton plants under greenhouse conditions, Example A; assay type: in vivo; details: 12 days after application, day/night 23/16° C., as a percentage of the control
Experimental: as §1, with “development stage:” for “stage of development:”, “greenhouse” for “green house”, “23/16°” for “28/20°”, “50-70%)” for “514 70%)”, “12” for “3”, “stated.” for “stared.”

[3] = converted application rate 0.125 kg/ha
[4] = converted application rate 0.250 kg/ha

Compound: COC(=O)C(C)ON=C(C#N)c1cc(N2C(=O)C3=C(CCCC3)C2=O)ccc1Cl (centres unmarked) [Compound 7.27]
- % defoliation [1, 3]: 100%
- % defoliation [1, 4]: 95%

Compound: O=C1C2=C(CCCC2)C(=O)N1c1cc(OCC2CCCOC2)c(Cl)cc1F (centres unmarked) [Compound 4.1]
- % defoliation ([2]; 0.062 kg/ha): 83%

Compound: CC1CSC(c2cc(N3C(=O)C4=C(CCCC4)C3=O)ccc2Cl)S1 (centres unmarked) [Compound 2.5]
- % defoliation ([2]; 0.062 kg/ha): 50%
- % defoliation ([2]; 0.125 kg/ha): 70%
- % defoliation ([2]; 0.250 kg/ha): 97%
- % defoliation [1, 3]: 97%
- % defoliation [1, 4]: 100%

Compound: CCOC(=O)C(Cl)=Cc1cc(N2C(=O)C3=C(CCCC3)C2=O)ccc1Cl [Compound 1.17, N-[3-(1′-ethoxycarbonyl-1′-chloroethenyl)-4-chlorophenyl]-3,4,5,6-tetrahydrophthalimide]
- % defoliation ([2]; 0.062 kg/ha): 55%
- % defoliation ([2]; 0.125 kg/ha): 84%
- % defoliation ([2]; 0.250 kg/ha): 89%
- % defoliation [1, 3]: 95%
- % defoliation [1, 4]: 100%

Compound: CC1CCCO1 (centres unmarked)
- % defoliation [1, 3]: 48%
- % defoliation [1, 4]: 53%

- melting point: 87 to 103 °C
Compound: Cc1ncccc1C(=O)N(C)C

Compound: COC(=O)C(C)=Cc1cc(N2C(=O)C3=C(CCCC3)C2=O)ccc1Cl [Compound 1.26]
- % defoliation ([2]; 0.062 kg/ha): 67%
- % defoliation ([2]; 0.125 kg/ha): 79%
- % defoliation ([2]; 0.250 kg/ha): 89%

Compound: O=C(Nc1ccccc1)Nc1cnns1 [Comparative agent I, N-phenyl-N′-(1,2,3-thiadiazol-5-yl)-urea, reference compound]
- % defoliation ([2]; 0.062 kg/ha): 13%
- % defoliation ([2]; 0.125 kg/ha): 31%
- % defoliation ([2]; 0.250 kg/ha): 67%

Compound: c1cc[n+]2c(c1)-c1cccc[n+]1CC2 [Comparative agent II, 6,7-dihydropyridol(1,2-α:2′,1′-c)pyridilium as the dibromide monohydrate salt, reference compound]
- % defoliation ([2]; 0.250 kg/ha): 11%
- % defoliation ([2]; 0.500 kg/ha): 27%

Compound: COC(=O)C(Br)=Cc1cc(N2C(=O)C3=C(CCCC3)C2=O)ccc1Cl [Compound 1.1]
- % defoliation ([2]; 0.062 kg/ha): 26%
- % defoliation ([2]; 0.125 kg/ha): 61%
- % defoliation ([2]; 0.250 kg/ha): 80%
- % defoliation [1, 3]: 100%
- % defoliation [1, 4]: 98%
